# Test results from patent publication EP0840781B1, “METHODS AND DEVICES FOR THE REMOVAL OF PSORALENS FROM BLOOD PRODUCTS” (Cerus Corporation, priority 1995, dated 1996).
# Where two headings read alike, the source gives them in different places.
# Key:
# [1] = tested on: Salmonella typhimurium tester strains TA97a, TA98, TA100, TA102, TA1537 and TA1538; conditions: for revertant colonies, TA1538 +S9 (Table 18 (A)): background 123; for revertant colonies, TA1538 -S9 (Table 18 (A)): background 126; for revertant colonies, TA1537 -S9 (Table 18 (A)): background 20; for revertant colonies, TA1537 +S9 (Table 18 (A)): background 25
# From the text: The second property that is important in testing a compound for use in methods described herein is mutagenicity. The most widely used mutagen/carcinogen screening assay is the Ames test. This assay is described by D.M. Maron and B.N. Ames in Mutation Research 113:173 ( 1983) and a specific screen is described in detail in Example 17, below. The Ames test utilizes several unique strains of Salmonella typhimurium that are histidine- dependent for growth and that lack the usual DNA repair enzymes. The frequency of normal mutations that render the bacteria independent of histidine (i.e., the frequency of spontaneous revertants) is low. The test allows one to evaluate the impact of a compound on this revenant frequency.
# Because some substances are not mutagenic by themselves, but are converted to a mutagen by metabolic action, the compound to be tested is mixed with the bacteria on agar plates along with the liver extract. The liver extract serves to mimic metabolic action in an animal.
# The mixtures are allowed to incubate. Growth of bacteria (if any) is checked by counting colonies.
# In this example the compounds described herein are tested for their dark mutagenicity using an Ames assay. The procedures used for the Salmonella mutagenicity test as described in detail by Maron and Ames were followed exactly. Maron, D.M. and B.N. Ames, Mutation Research 113: 173 ( 1983). A brief description for each procedure is given here. The tester strains TA97a, TA98, TA 100, TA102, TA1537 and TA1538 were obtained from Dr. Ames. TA97a, TA98, TA1537 and TA1538 are frameshift tester strains. TA100 and TA102 are base-substitution tester strains. Upon receipt each strain was cultured under a variety of conditions to confirm the genotypes specific to the strains.
# The first tests done with the strains were to determine the range of spontaneous reversion for each of the strains. With each mutagenicity experiment the spontaneous reversion of the tester strains to histidine independence was measured and expressed as the number of spontaneous revertants per plate. This served as the background controls.
# For all experiments, the pre-incubation procedure was used. In this procedure one vial of each tester strain was thawed and 20 µL of this culture was added to 6 mL of Oxoid Nutrient Broth #2. This solution was allowed to shake for 10 hours at 37°C. In the pre-incubation procedure, 0.1 mL of this overnight culture was added to each of the required number of sterile test tubes. To half of the tubes 0.5 mL of a 10% S-9 solution containing Aroclor 1254 induced rat liver extract (Molecular Toxicology Inc., Annapolis, MD), and MgCl2, KCl, glucose-6-phosphate, NADP, and sodium phosphate buffer (Sigma, St. Louis, Missouri) were added. To the other half of the tubes 0.5 mL of 0.2M sodium phospate buffer, pH 7.4, was used in place of the S-9 mixture (the - S9 samples). Finally 0.1 mL of the test solution containing either 0, 0.1, 0.5, 1, 5, 10, 50, 100, 250, or 500 µg/mL of the test compound was added. The 0.7 mL mixture was vonexed and then pre-incubated while shaking for 20 minutes at 37°C. After shaking, 2 mL of molten top agar supplemented with histidine and biotin were added to the 0.7 mL mixture and immediately poured onto a minimal glucose agar plate (volume of base agar was 20 mL). The top agar was allowed 30 minutes to solidify and then the plates were inverted and incubated for 44 hours at 37°C. After incubation the number of revertant colonies on each plate were counted.
# Maron and Ames (1983) describe the conflicting views with regard to the statistical treatment of data generated from the test.
# [2] = tested on: Duck Hepatitis B Virus (DHBV); test: Inactivation of Duck Hepatitis B Virus in platelet concentrate, read out by PCR amplification; assay type: biochemical; conditions: 5 J/cm^2 UVA
# Description: This example describes the protocol for inactivation of Duck Hepatitis B Virus (DHBV), a model for Hepatitis B Virus, using compounds described herein.
# DHBV in duck yolk was added to platelet concentrate (PC) to a final concentration of 2 x 10^7 particles per mL and mixed by gentle rocking for ≥15 min. Psoralens S-70, S-59 and AMT were added to 3 mL aliquots of PC in a Teflon™ mini-bag at concentrations of […]. Samples, including controls without added psoralen, were irradiated with 5 J/cm^2 UVA, with mixing at 1 J/cm^2 increments. After irradiation, leukocytes and platelets were separated from virus by centrifugation. The supernatant containing DHBV was digested overnight with 50 µg/mL proteinase K in a buffer containing 0.5% sodium dodecyl sulphate, 20 mM Tris buffer, pH 8.0, and 5 mM EDTA at 55°C. Samples were extracted with phenolchloroform and chloroform, followed by ethanol precipitation. Purified DNA was then used in PCR amplification reactions with a starting input of 10^6 DHBV genomes from each sample. PCR amplicons were generated using primers pairs DCD03/DCD05 (127 bp), DCD03/DCD06 (327 bp) and DCD03/DCD07 (1072 bp). PCR was performed in a standard PCR buffer containing 0.2 mM each deoxyribonucleoside 5'-triphosphates (dATP, dGTP, dCTP, and dTTP), […] each primer, and 0.5 units Taq polymerase per […]. 30 cycles of amplification were performed with the following thermal profile: 95°C 30 sec, 60° C 30 sec, 72° C 1 min. The amplification was followed by a 7 min incubation at 72° C to yield full length products. [[…]-^32P] dCTP was added at an amount of […] per […] in order to detect and quantify the resulting products. Products were separated by electrophoresis on denaturing polyacrylamide slab gels and counted. The absence of signal in a given reaction was taken to indicate effective inactivation of DHBV.
# [3] = two-fold or greater increase in revertants above background and dose dependent response
structure (smiles),measurement,setting,value
"Cc1cc(=O)oc2c(C)c3oc(COCCN)c(C)c3cc12 [Compound 18, 5'-(4-amino-2-oxa)butyl-4,4',8-trimethylpsoralen]","revertant colonies, TA98 -S9","[1]; 10 µg/plate, Table 19 (A) experiment, background 17",21
same,"revertant colonies, TA98 +S9","[1]; 10 µg/plate, Table 19 (A) experiment, background 28",8
same,"revertant colonies, TA1537 +S9","[1]; 10 µg/plate, Table 19 (B) experiment, background 7",8
same,"revertant colonies, TA1537 -S9","[1]; 10 µg/plate, Table 19 (B) experiment, background 8",21
same,"revertant colonies, TA98 -S9","[1]; 50 µg/plate, Table 19 (A) experiment, background 17",303
same,"revertant colonies, TA98 +S9","[1]; 50 µg/plate, Table 19 (A) experiment, background 28",6
same,"revertant colonies, TA1537 +S9","[1]; 50 µg/plate, Table 19 (B) experiment, background 7",6
same,"revertant colonies, TA1537 -S9","[1]; 50 µg/plate, Table 19 (B) experiment, background 8",303
same,"revertant colonies, TA98 -S9","[1]; 100 µg/plate, Table 19 (A) experiment, background 17",390
same,"revertant colonies, TA98 +S9","[1]; 100 µg/plate, Table 19 (A) experiment, background 28",26
same,"revertant colonies, TA1537 +S9","[1]; 100 µg/plate, Table 19 (B) experiment, background 7",26
same,"revertant colonies, TA1537 -S9","[1]; 100 µg/plate, Table 19 (B) experiment, background 8",390
same,"revertant colonies, TA98 -S9","[1]; 200 µg/plate, Table 19 (A) experiment, background 17",225
same,"revertant colonies, TA98 +S9","[1]; 200 µg/plate, Table 19 (A) experiment, background 28",42
same,"revertant colonies, TA1537 +S9","[1]; 200 µg/plate, Table 19 (B) experiment, background 7",42
same,"revertant colonies, TA1537 -S9","[1]; 200 µg/plate, Table 19 (B) experiment, background 8",225
same,"mutagenic response (Ames, summary)",[1]; [3],only a weak response at high concentrations in the presence of S9 in strains TA 9o and TA 1537
"Cc1oc2c(C)c3oc(=O)cc(C)c3cc2c1CNCCCCN [Compound 6, 4'-(6-amino-2-aza)hexyl4,5',8-trimethylpsoralen]","revertant colonies, TA1538 +S9",[1]; 5 µg/plate,0
same,"revertant colonies, TA1538 -S9",[1]; 5 µg/plate,-5
same,"revertant colonies, TA1538 +S9 (Table 18 (A))",[1]; 5 µg/plate,12
same,"revertant colonies, TA1538 -S9 (Table 18 (A))",[1]; 5 µg/plate,-32
same,"revertant colonies, TA1537 +S9",[1]; 10 µg/plate,-1
same,"revertant colonies, TA1537 -S9",[1]; 10 µg/plate,141
same,"revertant colonies, TA1538 +S9",[1]; 10 µg/plate,8
same,"revertant colonies, TA1538 -S9",[1]; 10 µg/plate,-2
same,"revertant colonies, TA1537 -S9 (Table 18 (A))",[1]; 10 µg/plate,12
same,"revertant colonies, TA1537 +S9 (Table 18 (A))",[1]; 10 µg/plate,-5
same,"revertant colonies, TA1538 +S9 (Table 18 (A))",[1]; 10 µg/plate,-5
same,"revertant colonies, TA1538 -S9 (Table 18 (A))",[1]; 10 µg/plate,3
same,"revertant colonies, TA1537 +S9",[1]; 50 µg/plate,17
same,"revertant colonies, TA1537 -S9",[1]; 50 µg/plate,2010
same,"revertant colonies, TA1537 -S9 (Table 18 (A))",[1]; 50 µg/plate,12
same,"revertant colonies, TA1537 +S9 (Table 18 (A))",[1]; 50 µg/plate,2
same,"revertant colonies, TA1538 +S9 (Table 18 (A))",[1]; 50 µg/plate,24
same,"revertant colonies, TA1538 -S9 (Table 18 (A))",[1]; 50 µg/plate,2
same,"revertant colonies, TA1537 +S9",[1]; 100 µg/plate,35
same,"revertant colonies, TA1537 -S9",[1]; 100 µg/plate,795
same,"revertant colonies, TA1537 -S9 (Table 18 (A))",[1]; 100 µg/plate,22
same,"revertant colonies, TA1537 +S9 (Table 18 (A))",[1]; 100 µg/plate,20
same,"revertant colonies, TA1538 +S9 (Table 18 (A))",[1]; 100 µg/plate,-2
same,"revertant colonies, TA1538 -S9 (Table 18 (A))",[1]; 100 µg/plate,-18
same,"revertant colonies, TA1537 +S9",[1]; 250 µg/plate,99
same,"revertant colonies, TA1537 -S9",[1]; 250 µg/plate,228
same,"revertant colonies, TA1537 -S9 (Table 18 (A))",[1]; 250 µg/plate,12
same,"revertant colonies, TA1537 +S9 (Table 18 (A))",[1]; 250 µg/plate,40
same,"revertant colonies, TA1538 +S9 (Table 18 (A))",[1]; 250 µg/plate,-38
same,"revertant colonies, TA1537 +S9",[1]; 500 µg/plate,369
same,"revertant colonies, TA1537 -S9",[1]; 500 µg/plate,43
same,"revertant colonies, TA1537 -S9 (Table 18 (A))",[1]; 500 µg/plate,9
same,"revertant colonies, TA1537 +S9 (Table 18 (A))",[1]; 500 µg/plate,52
same,"frameshift mutagenicity (Ames, summary)",[1]; [3],a frameshift response in TA98 in the presence of S9 at concentrations of 250µg/plate and above. It also showed a response at 50µg/plate in TA1537 in the presence of S9
same,"base-substitution mutagenicity (Ames, summary)","[1]; two-fold or greater increase in revertants above background and dose dependent response, TA100, TA102",no base substitution mutagenicity
"Cc1oc2c(C)c3oc(=O)cc(C)c3cc2c1COCCN [Compound 2, 4'-(4-amino-2-oxa)butyl-4,5',8-trimethylpsoralen]",PCR of the 1072 bp amplicon of DHBV,"[2]; all concentrations (35, 70, and 100 mM) in PC",complete inhibition of PCR
same,"inhibition of PCR of the smaller amplicons (127 bp, 327 bp) of DHBV",[2]; same concentrations as AMT,better than did AMT
same,"revertant colonies, TA100 +S9",[1]; 5 µg/plate,-18
same,"revertant colonies, TA100 -S9",[1]; 5 µg/plate,103
same,"revertant colonies, TA1538 +S9",[1]; 5 µg/plate,2
same,"revertant colonies, TA1538 -S9",[1]; 5 µg/plate,-8
same,"revertant colonies, TA98 +S9",[1]; 10 µg/plate,24
same,"revertant colonies, TA98 -S9",[1]; 10 µg/plate,28
same,"revertant colonies, TA100 +S9",[1]; 10 µg/plate,1
same,"revertant colonies, TA100 -S9",[1]; 10 µg/plate,46
same,"revertant colonies, TA1537 +S9",[1]; 10 µg/plate,5
same,"revertant colonies, TA1537 -S9",[1]; 10 µg/plate,36
same,"revertant colonies, TA1538 +S9",[1]; 10 µg/plate,4
same,"revertant colonies, TA1538 -S9",[1]; 10 µg/plate,-13
same,"revertant colonies, TA98 +S9",[1]; 50 µg/plate,35
same,"revertant colonies, TA98 -S9",[1]; 50 µg/plate,52
same,"revertant colonies, TA100 +S9",[1]; 50 µg/plate,115
same,"revertant colonies, TA100 -S9",[1]; 50 µg/plate,182
same,"revertant colonies, TA1537 +S9",[1]; 50 µg/plate,40
same,"revertant colonies, TA1537 -S9",[1]; 50 µg/plate,282
same,"revertant colonies, TA98 +S9",[1]; 100 µg/plate,53
same,"revertant colonies, TA98 -S9",[1]; 100 µg/plate,39
same,"revertant colonies, TA100 +S9",[1]; 100 µg/plate,96
same,"revertant colonies, TA100 -S9",[1]; 100 µg/plate,121
same,"revertant colonies, TA1537 +S9",[1]; 100 µg/plate,88
same,"revertant colonies, TA1537 -S9",[1]; 100 µg/plate,258
same,"revertant colonies, TA98 +S9",[1]; 250 µg/plate,69
same,"revertant colonies, TA98 -S9",[1]; 250 µg/plate,29
same,"revertant colonies, TA1537 +S9",[1]; 250 µg/plate,744
same,"revertant colonies, TA1537 -S9",[1]; 250 µg/plate,176
same,"revertant colonies, TA98 +S9",[1]; 500 µg/plate,63
same,"revertant colonies, TA98 -S9",[1]; 500 µg/plate,6
same,"revertant colonies, TA1537 +S9",[1]; 500 µg/plate,395
same,"revertant colonies, TA1537 -S9",[1]; 500 µg/plate,114
same,"frameshift mutagenicity (Ames, summary)",[1]; [3],weak frameshift mutagenicity in the presence of S9 in TA98 and TA1537
